Results on 7 compounds are retold here after patent US20040259775A1, “Conformationally constrained peptides that bind the ORL-1 receptor” (EURO-CELTIQUE S.A., priority 2002, published 2004).

The target in one experiment is T1, human ORL-1 receptor (Homo sapiens, UniProt P41146).
T1 construct: host or cells: recombinant HEK-293 cells
In words: [35S]GTPγS functional assay with ORL-1 receptor membranes. It is filed as biochemical. The following applies: for Emax: [35S]GTPγS functional assay, NC = 100. As to the method: Filter plates were subsequently dried at 50° C. for 2-3 hours. […] 3.0.
(In general: GTPγS resists hydrolysis and so accumulates on activated G proteins.)

Experiment [1] deals with human opioid receptor-like (ORL-1) receptor (Homo sapiens, UniProt P41146). It is filed as binding.

SMILES strings stand for the structures.

T1 sequence (P41146 whole entry): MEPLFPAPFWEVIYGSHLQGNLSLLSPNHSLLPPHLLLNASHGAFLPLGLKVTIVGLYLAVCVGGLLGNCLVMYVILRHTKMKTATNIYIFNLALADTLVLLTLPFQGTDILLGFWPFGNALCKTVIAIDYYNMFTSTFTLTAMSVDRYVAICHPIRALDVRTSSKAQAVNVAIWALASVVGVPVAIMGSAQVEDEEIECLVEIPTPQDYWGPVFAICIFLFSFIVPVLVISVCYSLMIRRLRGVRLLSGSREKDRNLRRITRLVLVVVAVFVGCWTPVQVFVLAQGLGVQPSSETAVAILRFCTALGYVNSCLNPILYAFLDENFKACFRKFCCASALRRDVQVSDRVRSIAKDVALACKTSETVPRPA
human opioid receptor-like (ORL-1) receptor, sequence (P41146 whole entry): as above

In general, Emax refers to the greatest response seen or fitted, relative to the assay's reference. `CC(C)C[C@H](NC(=O)[C@H](CCCCN)NC(=O)[C@H](CCCNC(=N)N)NC(=O)[C@H](C)NC(=O)[C@H](CO)NC(=O)[C@H](CCCCN)NC(=O)[C@H](CCCNC(=N)N)NC(=O)C(C)(C)NC(=O)CNC(=O)[C@@H](NC(=O)[C@H](Cc1ccccc1)NC(=O)CNC(=O)CNC(=O)[C@@H](N)Cc1ccccc1)[C@@H](C)O)C(=O)N[C@@H](C)C(=O)N[C@@H](CC(N)=O)C(=O)N[C@@H](CCC(N)=O)C(N)=O` [IA] gave a maximum response (Emax) at human ORL-1 receptor of 82%.

Compound `CC(C)C[C@H](NC(=O)[C@H](CCCCN)NC(=O)[C@H](CCCNC(=N)N)NC(=O)C(C)(C)NC(=O)[C@H](CO)NC(=O)[C@H](CCCCN)NC(=O)[C@H](CCCNC(=N)N)NC(=O)[C@H](C)NC(=O)CNC(=O)[C@@H](NC(=O)[C@H](Cc1ccccc1)NC(=O)CNC(=O)CNC(=O)[C@@H](N)Cc1ccccc1)[C@@H](C)O)C(=O)N[C@@H](C)C(=O)N[C@@H](CC(N)=O)C(=O)N[C@@H](CCC(N)=O)C(N)=O` [IIA] returned a maximum response (Emax) on human ORL-1 receptor of 82%.

On to `CC(C)C[C@H](NC(=O)[C@H](CCCCN)NC(=O)[C@H](CCCNC(=N)N)NC(=O)[C@H](C)NC(=O)[C@H](CO)NC(=O)[C@H](CCCCN)NC(=O)[C@H](CCCNC(=N)N)NC(=O)[C@H](C)NC(=O)CNC(=O)[C@@H](NC(=O)[C@H](Cc1ccccc1)NC(=O)CNC(=O)CNC(=O)[C@@H](N)Cc1ccccc1)[C@@H](C)O)C(=O)NC(C)(C)C(=O)N[C@@H](CC(N)=O)C(=O)N[C@@H](CCC(N)=O)C(N)=O` [IIIA], for which, on human ORL-1 receptor, the maximum response (Emax) came to 97%.

For the compound `CC(C)C[C@H](NC(=O)[C@H](CCCCN)NC(=O)[C@H](CCCNC(=N)N)NC(=O)[C@H](C)NC(=O)[C@H](CO)NC(=O)[C@H](CCCCN)NC(=O)[C@H](CCCNC(=N)N)NC(=O)[C@H](C)NC(=O)CNC(=O)[C@@H](NC(=O)[C@H](Cc1ccccc1)NC(=O)CNC(=O)CNC(=O)[C@@H](N)Cc1ccccc1)[C@@H](C)O)C(=O)NC(C)(C)C(=O)N[C@@H](CC(N)=O)C(=O)N[C@@H](CCC(N)=O)C(=O)O` [III], on human ORL-1 receptor, the maximal response (Emax) was 91%.

Take `CC(C)C[C@H](NC(=O)[C@H](CCCCN)NC(=O)[C@H](CCCNC(=N)N)NC(=O)C(C)(C)NC(=O)[C@H](CO)NC(=O)[C@H](CCCCN)NC(=O)[C@H](CCCNC(=N)N)NC(=O)[C@H](C)NC(=O)CNC(=O)[C@@H](NC(=O)[C@H](Cc1ccccc1)NC(=O)CNC(=O)CNC(=O)[C@@H](N)Cc1ccccc1)[C@@H](C)O)C(=O)N[C@@H](C)C(=O)N[C@@H](CC(N)=O)C(=O)N[C@@H](CCC(N)=O)C(=O)O` [II]: the maximal response (Emax) on human ORL-1 receptor worked out at 96%.

With `CC(C)C[C@H](NC(=O)[C@H](CCCCN)NC(=O)[C@H](CCCNC(=N)N)NC(=O)[C@H](C)NC(=O)[C@H](CO)NC(=O)[C@H](CCCCN)NC(=O)[C@H](CCCNC(=N)N)NC(=O)C(C)(C)NC(=O)CNC(=O)[C@@H](NC(=O)[C@H](Cc1ccccc1)NC(=O)CNC(=O)CNC(=O)[C@@H](N)Cc1ccccc1)[C@@H](C)O)C(=O)N[C@@H](C)C(=O)N[C@@H](CC(N)=O)C(=O)N[C@@H](CCC(N)=O)C(=O)O` [I], the maximal effect (Emax) on human ORL-1 receptor was 97%.

As to `CC(C)C[C@H](NC(=O)[C@H](CCCCN)NC(=O)[C@H](CCCNC(=N)N)NC(=O)C(C)(C)NC(=O)[C@H](CO)NC(=O)[C@H](CCCCN)NC(=O)[C@H](CCCNC(=N)N)NC(=O)C(C)(C)NC(=O)CNC(=O)[C@@H](NC(=O)[C@H](Cc1ccccc1)NC(=O)CNC(=O)CNC(=O)[C@@H](N)Cc1ccccc1)[C@@H](C)O)C(=O)N[C@@H](C)C(=O)N[C@@H](CC(N)=O)C(=O)N[C@@H](CCC(N)=O)C(N)=O` [VIIA, FGGFTG(AIB)RKS(AIB)RKLANQ-NH2], the “affinity compared with NC” value in experiment [1] is on record as “significantly higher affinity”. Also, the Emax on human ORL-1 receptor stood at 90%. Besides, on human ORL-1 receptor (functional assay, in words), the “agonist character at ORL-1” value was “efficacious agonist”. Also, the “potency compared with NC” value on human ORL-1 receptor (in words) is “more potent”.
